Here are results for two compounds from US4446319A, “Aminocyclitols and their production” (Takeda Chemical Industries, Ltd., priority 1981, dated 1984).

One may read the LD50 as the dose at which mortality reaches 50%. Read a high LD50 as a less toxic substance.

In one data set the test system is α-glucoside hydrolase. To be noted: reported in Journal of Antibiotics 33, 1575 to 1576 (1980); cited from earlier work.
The next data set is described as follows: toxicity (LD50) in rats. To be noted: rat, in vivo.
For data set [1], the target named is T1, α-glucosidase (yeast, type I) (Saccharomyces cerevisiae, UniProt P53341).
T1 construct: purchased Sigma Chemical Co; host or cells: yeast
The data set can be described thus: glucosidase inhibitory activity, p-nitrophenyl α-D-glucopyranoside as substrate. Format: biochemical. To be noted: substrate 0.01 M p-nitrophenyl α-D-glucopyranoside, pH 6.8, 37° C., read-out: IC50 (concentration of 50% inhibition). Here is the method: (§1) The inhibitory activities against α-glucosidase (yeast, type I, produced by Sigman Chemical Co.) and glucoamylase (Rhizopus mold, produced by Sigma Chemical Co.) when p-nitrophenyl α-D-glucopyranoside is used as a substrate, are determined by adding to 0.25 ml of 0.02 M phosphate buffer (pH 6.8) containing 0.005 mg/ml of α-glucosidase 0.5 ml of a solution of valiolamine in the same buffer and 0.25 ml of a solution of 0.01 M p-nitrophenyl α-D-glucopyranoside in the same buffer, allowing the reaction to proceed at 37° C. for 15 minutes, then adding 3 ml of 0.1 M aqueous sodium carbonate solution to terminate the reaction, and measuring the absorbance of the reaction solution at 400 nm. The 50% inhibition concentration is calculated from the inhibition rates (%) which are determined with inhibitory substance samples of three to five different concentrations.

Data set [2] deals with maltase (porcine, intestinal mucosa). The data set can be described thus: maltase inhibitory activity, maltose as substrate. Format: biochemical. To be noted: substrate 0.05 M maltose, pH 6.8, 37° C., read-out: IC50 (concentration of 50% inhibition). The procedure: (§2) The inhibitory activities of valiolamine against α-glucosidase (yeast, type I, produced by Sigma Chemical Co., U.S.A.) as well as maltase and saccharase prepared from porcine intestinal mucosa (prepared in accordance with the procedure as described by B. Borgstrom and A. Dahlqvist in Acta Chem. Scand.; 12, 1997-2006, (1958)), when maltose and sucrose are used as a substrate, are determined by adding to 0.25 ml of a solution of an enzyme prepared by diluting suitably with 0.02 M phosphate buffer (pH 6.8) 0.5 ml of a solution of valiolamine to be tested in the same buffer and 0.25 ml of 0.05 M maltose or 0.05 M sucrose as the substrate in the same buffer allowing the mixture to react at 37° C. for 10 minutes, then adding 3 ml of Glucose B-Test Reagent (a glucose oxidase reagent for measurement of glucose, produced by Wako Pure Chemical Co., Japan), further warming the mixture at 37° C. for 20 minutes and measuring the absorbance of the reaction solution at 505 nm. […]

In data set [3] the target is T2, glucoamylase (Rhizopus mold) (Rhizopus oryzae, UniProt P07683).
T2 construct: purchased Sigma Chemical Co; host or cells: Rhizopus mold
T2 sequence (P07683 26-604): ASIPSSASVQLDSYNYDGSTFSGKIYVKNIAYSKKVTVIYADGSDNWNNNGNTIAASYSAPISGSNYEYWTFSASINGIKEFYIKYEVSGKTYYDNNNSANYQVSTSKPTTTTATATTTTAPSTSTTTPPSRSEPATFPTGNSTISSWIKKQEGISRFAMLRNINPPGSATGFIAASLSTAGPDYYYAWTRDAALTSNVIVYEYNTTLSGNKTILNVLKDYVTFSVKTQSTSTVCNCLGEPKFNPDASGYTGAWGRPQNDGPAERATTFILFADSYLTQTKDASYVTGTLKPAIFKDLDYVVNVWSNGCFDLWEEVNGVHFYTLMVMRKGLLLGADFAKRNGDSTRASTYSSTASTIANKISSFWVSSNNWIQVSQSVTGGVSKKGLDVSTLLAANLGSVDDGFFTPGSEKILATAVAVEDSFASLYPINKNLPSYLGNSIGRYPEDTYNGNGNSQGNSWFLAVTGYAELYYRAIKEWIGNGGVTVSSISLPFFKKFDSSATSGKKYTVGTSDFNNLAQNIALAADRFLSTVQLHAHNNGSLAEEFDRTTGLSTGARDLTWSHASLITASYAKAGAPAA
The data set can be described thus: glucoamylase inhibitory activity, p-nitrophenyl α-D-glucopyranoside as substrate. Format: biochemical. To be noted: substrate 0.01 M p-nitrophenyl α-D-glucopyranoside, pH 6.8, 37° C., read-out: IC50 (concentration of 50% inhibition). Here is the method:
as §1

The target of data set [4] is T1, α-glucosidase (yeast, type I). Put plainly: glucosidase inhibitory activity, maltose as substrate. Format: biochemical. To be noted: substrate 0.05 M maltose, pH 6.8, 37° C., read-out: IC50 (concentration of 50% inhibition). The procedure:
as §2

T1 sequence (P53341 whole entry): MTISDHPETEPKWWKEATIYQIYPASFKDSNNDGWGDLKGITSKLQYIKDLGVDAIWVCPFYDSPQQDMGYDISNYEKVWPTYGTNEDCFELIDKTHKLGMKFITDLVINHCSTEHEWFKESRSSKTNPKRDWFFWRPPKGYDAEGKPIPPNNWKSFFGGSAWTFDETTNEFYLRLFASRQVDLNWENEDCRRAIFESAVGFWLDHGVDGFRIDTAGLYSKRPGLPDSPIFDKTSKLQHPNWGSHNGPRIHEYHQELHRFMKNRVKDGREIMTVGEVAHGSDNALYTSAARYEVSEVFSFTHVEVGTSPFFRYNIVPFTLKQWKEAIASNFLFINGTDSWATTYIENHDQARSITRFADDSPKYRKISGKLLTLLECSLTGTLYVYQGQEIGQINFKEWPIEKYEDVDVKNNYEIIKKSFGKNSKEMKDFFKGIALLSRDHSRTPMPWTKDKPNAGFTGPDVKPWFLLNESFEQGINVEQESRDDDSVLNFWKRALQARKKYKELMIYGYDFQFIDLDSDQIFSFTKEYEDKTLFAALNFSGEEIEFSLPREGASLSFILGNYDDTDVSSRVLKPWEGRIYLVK

On to `N[C@H]1C=C(CO)[C@@H](O)[C@H](O)[C@H]1O` [valienamine], for which the “action on α-glucoside hydrolase” value in the data set on α-glucoside hydrolase was “possesses an action of suppressing the function of α-glucoside hydrolase”.
`N[C@H]1C[C@](O)(CO)[C@@H](O)[C@H](O)[C@H]1O` [valiolamine, 1L(1S)-(1(OH),2,4,5/1,3)-5-amino-1-hydroxymethyl-1,2,3,4-cyclohexanetetrol]: the LD50 in the data set “toxicity (LD50) in rats” is at least 500 mg/kg. Besides, the IC50 in data set [1] is 1100 µM; in data set [2], 2.2 µM; in data set [3], 600 µM; in data set [4], 190 µM.
